No end group written: not given here.
Tests used:
LDL [1] = assay: BIAcore affinity of immobilized peptide to LDL in plasma; type: binding; conditions: plasma containing 1 mg/ml LDL versus LDL-free plasma; based on the immobilized amount of RRWFW-CONH2 as standard
Excerpt: (§1) Further, the binding ability (affinity) of the adsorbent for an LDL can also be determined by using BIAcore (manufactured and sold by Pharmacia Biosensor AB, Sweden), in accordance with the instructions given in a manual attached to BIAcore. Specifically, the binding ability of the adsorbent for an LDL can also be determined by a method in which the peptide is immobilized on a sensor chip of the BIAcore, and a solution containing LDL, such as plasma, is flowed over the sensor chip.
Twenty-seven different peptides and four different comparative peptides (which are all shown in Table 12, wherein for Example 12, Sample Nos. 12-15 are SEQ ID NOS:12-15, respectively) were prepared in substantially the same manner as in Example 7. Each of the obtained peptides was individually dissolved in a 10 mM acetate buffer (pH: 5.5) to thereby obtain peptide solutions each having a peptide concentration of […]. […]
The affinity of the peptide to the LDL in plasma was measured using the above-mentioned BIAcore (provided with the sensor chip having the peptide immobilized thereon) as follows. […]

LDL [2] = assay: BIAcore affinity of immobilized peptide to LDL in HBS buffer; type: binding; conditions: 6-minute injection, based on the immobilized amount of RRWFW-CONH2 as standard
Excerpt: as §1
Twenty-six different peptides and four different comparative peptides (which are all shown in Table 11; wherein for Example 11, Sample Nos. 1, 4 and 5-26 are SEQ ID NOS:35, 89 and 36-57, respectively, and wherein for Comparative Example 8, Sample Nos. 1, 2, 3 and 4 are SEQ ID NOS:86, 87, 90 and 88, respectively) were prepared in substantially the same manner as in Example 7. […]
The affinity of the peptide to the LDL contained in HBS buffer was measured using the above-mentioned BIAcore (provided with the sensor chip having the peptide immobilized thereon) as follows. […] However, since the amounts of the peptides immobilized on the sensor chip vary depending on the types of the peptides, the amount of a peptide of RRWFW-CONH2 immobilized on the sensor chip was taken as a standard amount and the affinities of various tested peptides were determined, based on the above standard amount.

EMEEV-CONH2 (EMEEV-NH2)
Affinity to LDL (RU) (LDL [1]): 270 RU | Affinity to LDL (RU) (LDL [2]): 730 RU

DPSVY-CONH2 (DPSVY-NH2)
Affinity to LDL (RU) (LDL [1]): 250 RU | Affinity to LDL (RU) (LDL [2]): 310 RU

Reference: US6127339A, “Peptide for binding thereto a low density lipoprotein” (Asahi Kasei Kogyo Kabushiki Kaisha, priority 1995, dated 2000)
